This is an account of results in patent US20190224260A1, “Metabolic Syndrome Inhibitor” (J-OIL MILLS, INC., priority 2016, published 2019).

In the assay the test system is rat primary visceral fat cells. Nature of the assay: Cell test: fat droplet area (Oil Red O staining) in visceral fat cells. The assay is classed as cell-based. Conditions: test solution in DMSO diluted 1000-fold with medium; cultured 2+2 days; vs control group (DMSO); FIG. 15, p 0.01 or less. The method, then: 100 μL of dimethylsulfoxide (DMSO) was added to 4.147 mg of unsaponifiable matter, or 259.65 μL of dimethylsulfoxide (DMSO) was added to 1.0716 mg of the avenasterol fraction, and which was sonicated for 1 minute to obtain a test solution. The test solution of the unsaponifiable matter (avenasterol concentration: 1.41 mg/ml) was referred to as an unsaponifiable matter group, and the test solution of the avenasterol (avenasterol concentration: 3.60 mg/ml) was referred to as an avenasterol fraction group. Furthermore, a DMSO without the unsaponifiable matter nor the avenasterol fraction (control group) was prepared. Each test solution in each group was diluted 1000-fold with a medium described in the following “Cell test”, and sonicated for 1 minute to obtain a medium with the test solution. […]
The medium was removed, and the inside of the well was washed with 0.5 mL of phosphate buffered saline (PBS). […] The cells were microscopically observed at a magnification of 200 times, and visceral fat cells with stained fat droplets were recorded as images on a recording device of a computer.
Area values of the lipid droplets stained with the Oil Red O on the above-described images were measured using the image processing software ImageJ (1.48 v) (obtained from https://imagej.nih.gov/ij/). The cell test was carried out three times, and four images were recorded in each group for each cell test. […]

With Avenasterol, the “fat accumulation in the fat cell (relative area value of fat droplets)” value is “significantly inhibited”.
